Reference: patent publication US12421257B2, “Compositions and methods for inhibiting group II intron RNA” (YALE UNIVERSITY, priority 2018, dated 2025)
Converted amounts (≈) assume the structure as drawn. Like-named read-outs stand apart in the source and are kept apart here.

How the values were obtained:
HEK-293T cells = assay: Cytotoxicity in HEK-293T cells (Cell Titer Glo); type: cell-based, human; conditions: for IC50: Homo sapiens
[1] = system: COX1 aI5γ group II intron; assay: Group II intron splicing in S. cerevisiae by RT-qPCR; type: cell-based, Saccharomyces cerevisiae; conditions: qRT-PCR, four hours with compound
Protocol: A culture of S. cerevisiae was grown overnight with shaking in YPGE at 30° C. The saturated culture was then diluted and grown to mid-log phase in YPGE. Equal volumes of DMSO or compounds dissolved in DMSO were added to individual cultures (final concentrations of NED-2020: 64 μg/mL, APY-101: 32 μg/mL, APY-081: 32 μg/mL, APY-014: 64 μg/mL, Amphotericin B: 8 μg/mL), and incubated for four hours. Cells were harvested by centrifugation, washed with 500 μL ice-cold MilliQ water, centrifuged again, and snap-frozen in liquid nitrogen. Total RNA was isolated using E.Z.N.A. Yeast Purification Kit (Omega Bio-tek) according to manufacturer's procedures. The RNA was eluted in 50 μL of RNase/DNase-free water (ThermoFisher), followed by DNAse treatment with RQ1 DNase (Promega), for 1 hour at 37° C. Then it was mixed with 6 μl of 3M NaOAc and precipitated with 75% EtOH at −20° C. overnight. Then the RNA was reverse-transcribed with SuperScript III (ThermoFisher) following manufacturer's recommendations with 200 ng Random Hexamer Primers (ThermoFisher) and RNasin (ThermoFisher) in a 20 μl reaction. After reverse transcription, RNA was degraded by addition of 2N NaOH (2 μl) and incubation at 95° C. for 5 minutes. After cooling on ice for 5 minutes, 2 μl of 1M HCl and 2 μl of 3M NaOAc were added to the reaction mixture, and cDNA was precipitated with 75% EtOH at −20° C. for 30 minutes and resuspended in RNase/DNase-free water. The cDNA levels were quantified with real-time PCR using LightCycler 480 SYBR Green I (Roche) and a CFX384 Real-Time PCR Detection System (Bio-Rad) in triplicate. Relative levels of indicated RNA species from different conditions were normalized according to the ΔΔCT method via the following equation (Livak and Schmittgen, 2001, Methods, 25:402-408): ΔΔCT=[(CTCOX1total or unspliced−CTACT1or PGK1)test compound−(CTCOX1total or unspliced−CTACT1or PGK1)DMSO)].
The average and SEM of 2^-ΔΔCT is reported for each sample from three independent replicates. The following primer sets were used to amplify indicated targets: ACT1: […] (SEQ ID NO:1), […] (SEQ ID NO:2); PGK1: […] […]

C. parapsilosis = assay: MIC determination against C. parapsilosis; type: cell-based, Candida parapsilosis; conditions: Lodderomyces parapsilosis; RPMI-1640, 35° C. or 37° C., turbidity after 24 and 48 hours
Method in brief: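 Broth microdilution in RPMI-1640 with C. parapsilosis at 0.5×10^3 to 2.5×10^3 CFU/mL; test compounds 0.25-128 μg/ml final, 1% DMSO. Plates incubated at 35° C or 37° C, turbidity read visually at 24 and 48 h. MIC = lowest concentration without visible growth; triplicates.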

[2] = system: S. cerevisiae wild-type (NP40-36a) and mtDNA intronless (XPM46) strains; assay: S. cerevisiae growth assay, wild-type vs mtDNA intronless strain; type: cell-based, Saccharomyces cerevisiae; conditions: YPGE medium, 64 or 128 μg/mL
Protocol: Cultures of S. cerevisiae (Wild-type: NP40-36a, mtDNA intronless: XPM46 (Perez-Martinez et al., 2003, EMBO J, 22:5951-5961) were grown overnight with shaking to mid-log phase in YPGE at 30° C. Equal numbers of cells were harvested and serially-diluted 1:5. Cells were then plated on YPD or YPGE media containing DMSO or Intronistat A dissolved in DMSO (final concentration: 64 or 128 μg/mL). Plates were grown for one day (YPD plates), two days (YPGE DMSO plate), or 18 days (YPGE 18 (Intronistat A) plate) at 30° C. Experiment was replicated twice to ensure reproducibility of growth phenotype.

[3] = cytotoxicity, 24 hours with compound, read-out: IC50 HEK-293
[4] = 72 hours growth in the presence of compounds, read-out: IC50 HEK-293T viability after 72-hour incubation

MIC (C. parapsilosis) | Structure (SMILES) | IC50 (HEK-293T cells; [3]) | Splicing of COX1 aI5γ group II intron in S. cerevisiae in vivo (in words) [1] | IC50 (HEK-293T cells; [4]) | Toxicity in human cells (in words) (HEK-293T cells; 24 hours incubation) | Growth of intronless vs wild-type strain in presence of compound (in words) [2]
– | O=C1/C(=C/c2cc(O)cc(O)c2)Oc2cc(O)cc(O)c21 [APY-014, (Z)-2-(3,5-Dihydroxybenzylidene)-4,6-dihydroxybenzofuran-3(2H)-one] | > 64 µg/mL | inactive | – | – | –
2 to 4 µg/mL (≈ 5.31 to 10.6 µM) | O=C(c1cc(O)c(O)c(O)c1)c1cc2cc(-c3ccc(CO)cc3)ccc2o1 [APY-084, 5-({5-[4-(Hydroxymethyl)phenyl]-1-benzofuran-2-yl}carbonyl)benzene-1,2,3-triol] | 1.1 ± 0.1 µg/mL | – | 1 ± 0.04 µg/mL | – | –
4 to 8 µg/mL | Br.CCN(CC)Cc1ccc(-c2ccc3oc(C(=O)c4cc(O)c(O)c(O)c4)cc3c2)cc1 [APY-090, 5-[(5-{4-[(Diethylamino)methyl]phenyl}-1-benzofuran-2-yl)carbonyl]benzene-1,2,3-triol hydrobromide] | 1.7 ± 0.6 µg/mL | – | – | – | –
32 to 64 µg/mL (≈ 64.4 to 129 µM) | CCCCNS(=O)(=O)c1ccc(-c2ccc(-c3nc(-c4cc(O)c(O)c(O)c4)cs3)cc2)cc1 [APY-093, N-Butyl-4-{4-[4-(3,4,5-trihydroxyphenyl)-1,3-thiazol-2-yl]phenyl}benzene-1-sulfonamide] | 7.2 ± 1.5 µg/mL | – | – | – | –

Structure (SMILES) | MIC (C. parapsilosis) | IC50 (HEK-293T cells; [3]) | Splicing of COX1 aI5γ group II intron in S. cerevisiae in vivo (in words) [1] | IC50 (HEK-293T cells; [4]) | Toxicity in human cells (in words) (HEK-293T cells; 24 hours incubation) | Growth of intronless vs wild-type strain in presence of compound (in words) [2]
Cc1ccncc1-c1ccc2oc(C(=O)c3cc(O)c(O)c(O)c3)cc2c1 [APY-081, 5-{[5-(4-Methylpyridin-3-yl)-1-benzofuran-2-yl]carbonyl}benzene-1,2,3-triol] | 4 to 8 µg/mL (≈ 11.1 to 22.1 µM) | > 128 µg/mL | inhibit splicing | 0.79 ± 0.09 µg/mL | – | –
CC(=O)c1ccc(-c2ccc3oc(C(=O)c4cc(O)c(O)c(O)c4)cc3c2)cc1 [APY-101, 1-(4-{2-[(3,4,5-Trihydroxyphenyl)carbonyl]-1-benzofuran-5-yl}phenyl)ethan-1-one] | 2 to 4 µg/mL (≈ 5.15 to 10.3 µM) | > 128 µg/mL | inhibit splicing | 1.3 ± 0.1 µg/mL | did not show toxicity | intronless strain is much more resistant
